This is an account of results in US20230124720A1, “APPLICATION OF ACRIDINEDIONE COMPOUND IN PREPARATION OF ANTI-DIABETIC DRUGS” (THE FOURTH MILITARY MEDICAL UNIVERSITY, priority 2020, published 2023).

pEC50: −log10 of the molar value.

Data set [1] in a line: Tissue distribution kinetics in SD rats (LC-MS/MS). The class given is in vivo, rat. The conditions noted are these: gavage 10 mg/kg. Here is the method: 40 healthy male SD rats, weighing 200-220 g, were housed adaptively for three days and fasted for 12 h prior to the experiment. All rats were randomly divided into 5 groups, 8 for each group. Each group of rats was gavaged with the ADD-16 solution (10 mg/kg), anesthetized at 10, 30, 60, 240, 480 min after administration, and sacrificed by exsanguination of the abdominal aorta, respectively. Each group of rats was sacrificed by dissection to collect tissues such as heart, liver, spleen, lung, kidney, brain, and islets. After washing the tissue samples with physiological saline to clean surface blood, the tissue samples were blotted with filter paper to dry surface moisture, weighed, and stored at −80° C. The assay was performed by natural thawing at room temperature and the concentration of ADD-16 in each tissue was determined using the LC-MS/MS method.

Data set [2] concerns the target T1, HEK-293T cells stably overexpressing GPR40 (Homo sapiens, UniProt O14842).
T1 construct: expressed in transfected cells; host or cells: HEK-293T
Kind of data set: GPR40 agonistic activity assay (Fluo-4 AM fluorescence, Flexstation). Format: cell-based.
Method: There were triplicate wells for each group, and a Flexstation instrument was used for detecting and reading fluorescence values. Each compound dilution concentration was: 200 μmol/L, 100 μmol/L, 50 μmol/L, 10 μmol/L, 5 μmol/L.
EC50 value for each compound was calculated from the measured fluorescence value according to the following formula:
Relative agonism ratio=(fluorescence value of test compound-fluorescence value of negative control)/(fluorescence value of agonist positive control-fluorescence value of negative control)*100%;

For data set [3], the system named is ZDF rat islet tissue. Kind of data set: Western Blot of insulin signaling related molecules in ZDF rat islet tissue. The class given is in vivo. The conditions noted are these: compared to TD group, P<0.001, most pronounced at 10 mg/kg. (In general: Immunoblotting shows a protein as a band on a membrane.)
Data set [4] has as its system STZ-induced T2DM rats. Kind of data set: Serum lipid metabolism indicators in T2DM rats. The class given is in vivo, rat. Here is the method:
150 male SD rats, housed in cages in a clean constant temperature (23±2° C.) and humidity (55±10%) animal house, were manually adjusted on a daily 12 h/12 h diurnal light cycle with free access to water. After 3 days of adaptive feeding, 150 rats were randomly divided into normal and model groups. The normal (Con, n=15) group of rats remained on raw chow and the model group (n=135) of rats were given high fat high sugar chow. All rats were fed twice daily and the amount of feed was adjusted as needed to ensure adequate feed. After 8 weeks of group feeding, the model group rats were given an intraperitoneal injection of 25 mg/kg STZ solution with a 12 h fast prior to injection. After injection, feeding was continued as in the original method, blood was taken from the tail vein at 72 h for blood glucose measurement, and rats with fasting blood glucose levels ≥11.1 mmol/L on different days were screened for successful artificial induction of T2DM and administered in groups for the next experiment. 135 rats with successful modeling were randomly divided into 9 groups: […] […] Relevant indicators of lipid metabolism were measured after the end of the study.

In data set [5] the test system is MIN6 cells. In words: Western Blot / immunofluorescence of insulin signaling related molecules in insulin-resistant MIN6 cells. Format: cell-based, mouse. The method, then: MIN6 cells were seeded in culture dishes at the appropriate density and cultured as described in step 2.1 to a confluency of about 80%. Cells were divided into the following 5 groups: (1) normal control group (Con): cultured with blank 1640 medium; (2) insulin resistance model panel (IR): treatment with 0.125 mmol/L PA for 24 h to induce establishment of a MIN6 cell insulin resistance model; (3) 3 μmol/L ADD-16 administration group (ADD I): 3 μmol/L ADD-16 intervention was given for 24 h after successful establishment of the insulin resistance model; (4) 10 μmol/L ADD-16 administration group (ADD II): 10 μmol/L ADD-16 intervention was given for 24 h after successful establishment of the insulin resistance model; (5) TAK875 control group (TAK875): 10 μmol/L TAK875 was administered as a positive control drug intervention for 24 h after successful establishment of the insulin resistance model. At the end of the group administration, groups of cells were harvested for WB or IF experiments.

T1 sequence (O14842 whole entry): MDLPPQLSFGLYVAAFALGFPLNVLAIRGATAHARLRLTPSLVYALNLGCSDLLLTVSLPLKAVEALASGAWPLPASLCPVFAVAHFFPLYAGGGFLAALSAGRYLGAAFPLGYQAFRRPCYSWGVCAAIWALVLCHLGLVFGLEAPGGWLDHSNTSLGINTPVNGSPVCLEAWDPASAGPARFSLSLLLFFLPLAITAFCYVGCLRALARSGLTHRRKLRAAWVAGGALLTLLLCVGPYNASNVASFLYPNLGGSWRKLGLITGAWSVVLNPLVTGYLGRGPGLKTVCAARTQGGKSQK

What is called pEC50 is −log10 of the EC50, conventionally taken in molar units. A low value points to a high EC50. For `CC1(C)CC(=O)C2=C(C1)NC1=C(C(=O)CC(C)(C)C1)C2c1ccc(OCc2ccc(C(=O)O)cc2)c(Br)c1` [ADD-16], the “islet targeting (in words)” value in data set [1] is “well-defined islet targeting”. Besides, the “tissue Cmax order” value in data set [1] (AUC 0-8 order the same) is “liver>islets>lung>kidney>heart>spleen>brain”. The “blood-brain barrier penetration (in words)” value in data set [1] (lowest concentration in brain tissue) is reported as “does not readily penetrate the blood-brain barrier”. This molecule gave a pEC50 in data set [2] (GPR40 agonism, n = 6) of 4.91. Moreover, in data set [2] (among the candidate compounds screened), the “agonistic activity (in words)” value is “highest agonistic activity”. Further, the “expression of insulin signaling-related molecules, Western Blot (in words)” value was “upregulate the expression of GPR40, PGC-1α, P-P38, P-EP300, PPARγ, P-AKT, PI3K, IRS1 and GLUT4” in data set [3]; “upregulate GPR40, PGC-1α, P-P38, P-EP300, PPARγ, P-AKT, PI3K, IRS1 and GLUT4 expression” in data set [5] (insulin-resistant MIN6 cells, 24 h, P<0.001). The “TG, LDL and HDL levels, 10 mg/kg against 3 mg/kg (in words)” value in data set [4] (ADD V (10 mg/kg) group) is listed as “significantly lower than ADD IV (3 mg/kg) group rats”. Besides, the “serum FFA, TC, TG, LDL and HDL levels (in words)” value in data set [4] (four weeks after administration, ADD-16: ADD III-ADD VI groups (1-50 mg/kg), P<0.05) is “significantly decreased”. Also, the “GPR40 expression, immunofluorescence staining (in words)” value in data set [5] (MIN6 cells) is given as “upregulate GPR40 expression”.
